Source: patent publication US11142548B2, “Agents that activate CD47 and their use in the treatment of inflammation” (SORBONNE UNIVERSITE, priority 2016, dated 2021)

Tests used:
HTRA1 = target: T1, HTRA1 (Homo sapiens, UniProt Q92743); test: HTRA1 cleavage sites of TSP1 by LC-MS/MS; type: biochemical; details: post-digestion fragments
T1 construct: purchased R & D
Experimental: Proteins were submitted to reduction by incubation with 5 mM dithiotreitol in 50 mM ammonium bicarbonate (AmBic) for 30 min at 37° C., then alkylation with 15 mM iodoacetamide in 50 mM AmBic for 30 min, RT. Tryptic digestion was performed with a protein/enzyme ratio of 25/1 at 37° C. overnight in 50 mM AmBic.
Peptide mixtures were supplemented with formic acid to a final concentration of 0.1% and analyzed on a U3000 nanoLC (Thermo) coupled to an HCTultra ion trap (Bruker). Peptides were concentrated and desalted for 5 min on a precolumm RP-C18 (5 mm, 300 μm i.d., 100 Å, Thermo) with a mobile phase A (2% ACN/0.1% formic acid) at a flow rate of 20 μL/min then separated on an analytical column RP-C18 (15 cm, 75 μm i.d., 100 Å, Dionex) at a flow rate of 300 nL/min. Elution gradient was run from 2% to 10% of solvent B (95% ACN/0.1% formic acid) in 10 min then 10% to 35% B in 60 min and 35% to 50% B in 10 min. The ion trap was used in the positive mode with the selection of 8 precursors from each MS spectrum for fragmentation by collision induced dissociation (CID). […]
Tryptic peptides were also analyzed by MALDI-TOF MS on an Autoflex speed (Bruker) in positive reflectron mode in the mass range 700-4000 m/z using α-Cyano-4-hydroxycinnamic acid as the matrix (0.9 mg/mL CHCA in 85% CAN, 0.1% TFA, 10 mM ammonium phosphate). […]

subretinal IBA-1+ MPs = test: Laser-injury model in Cx3cr1GFP/GFP mice; type: in vivo, mouse; details: 2 μl intravitreal at day 4 and day 7, day 10, vs PBS or 4NGG
Experimental: Laser-coagulations were performed with a 532 nm ophtalmological laser mounted on an operating microscope (Vitra Laser, 532 nm, 450 mW, 50 ms, and 250 μm): Intravitreal injections of 2 μl of HTRA1 and/or TSP1 were performed using glass capillaries (Eppendorf) and a micro injector. The 2 μl injection solution contained 50 μg/ml TSP1 and HTRA1, corresponding to an intraocular concentration of 5 μg/ml of each protein assuming their dilution by approximately 1/10th in the intra-ocular volume. […] A volume of 2 μl of a 100 μM solution of either PBS, recombinant TSP1 (10 μg/ml), the 4NGG control peptide or the CD47-activating peptide PKT16 (200 μM) was injected at day 4 (when MP infiltration is maximal) and day 7 after the injury and evaluated subretinal inflammation on flatmounted RPE/choroidal flatmounts at day 10.
Eyes were enucleated, fixed in 4% PFA 30 minutes and sectioned at the limbus; the cornea and lens were discarded. […] Choroids and retinas were flatmounted and viewed with a fluorescence microscope DM5500B (Leica). IBA-1+ cells were counted on whole RPE/choroidal flatmounts and on the outer segment side of the retina. […]

[1] = test system: recruited monocyte-derived inflammatory macrophages (recMφ); test: Thioglycollate-induced peritonitis; type: in vivo, mouse; details: single intra-peritoneal injection at day 1, observed at day 2
Experimental: Mouse peritoneal exudate cells (PECs) were elicited by i.p. injection of 0,5 ml 3% thioglycollate (T9032, Sigma) into 10 weeks old male C57BL/6J and Cd47^−/− mice. After 1 day, PECs were isolated by flushing of the peritoneum with ice-cold PBS, Mφs were negatively selected by magnetic sorting following the manufacturers protocol (EasySep Mouse Monocyte Enrichment Kit, Stemcell Technologies), resuspended in X-VIVO 15 medium (Lonza), and plated in Lab-Tek® Chamber Slide™ (Nunc®).
To test whether CD47 influences inflammation resolution in other pathological contexts, a model of acute thioglycollate-induced peritonitis was used, characterized by an early accumulation of neutrophils, followed by recruited monocyte-derived inflammatory macrophages (recMφ), both experiencing an apoptosis-driven elimination at different kinetics (Gautier et al., Blood. 2013, 122:2714-2722).

T1 sequence (Q92743 23-480): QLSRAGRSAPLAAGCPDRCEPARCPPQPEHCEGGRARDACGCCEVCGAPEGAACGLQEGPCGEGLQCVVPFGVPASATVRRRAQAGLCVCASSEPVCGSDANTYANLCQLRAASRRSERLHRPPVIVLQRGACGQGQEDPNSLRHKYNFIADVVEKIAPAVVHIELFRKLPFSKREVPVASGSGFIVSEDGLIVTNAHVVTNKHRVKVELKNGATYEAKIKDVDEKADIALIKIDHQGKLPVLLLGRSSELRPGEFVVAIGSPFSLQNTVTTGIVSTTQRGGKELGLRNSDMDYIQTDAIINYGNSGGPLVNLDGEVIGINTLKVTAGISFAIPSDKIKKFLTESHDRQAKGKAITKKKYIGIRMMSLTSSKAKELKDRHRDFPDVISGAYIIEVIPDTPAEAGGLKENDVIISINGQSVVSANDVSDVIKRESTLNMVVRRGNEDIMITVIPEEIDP

In the case of “recombinant TSP1: recombinant human TSP1 (R&D Systems), natural ligand and agonist of CD47”, the “distinct sites proteolyzed by HTRA1” value (HTRA1) is reported as 5 sites, the “elimination of subretinal IBA-1+ MPs adjacent to the laser impact” value (subretinal IBA-1+ MPs) is reported as “eliminated significantly more efficiently” and the “elimination of recMφs” value [1] is reported as “significantly accelerated the elimination”.
